Measured values published in article PMC12452389, “Arginine-Derived Cationic Surfactants Containing Phenylalanine and Tryptophan: Evaluation of Antifungal Activity, Biofilm Eradication, Cytotoxicity, and Ecotoxicity” (Journal of Xenobiotics, 2025).
Like-named read-outs stand apart in the source and are kept apart here.

Experiments:
cmc by conductivity = format: physicochemical; conditions: conductivity measurements; BAC mixture C12 (70%) and C14 (30%)
[1] = system: Candida albicans ATCC 90028; test: MIC broth microdilution; format: cell-based; conditions: C. albicans
Procedure: (§1) The antimicrobial activity of these compounds was assessed against selected yeast and bacterial strains: Candida albicans ATCC 90028 (CA9), Candida rugosa ATCC 10571 (CR), Candida glabrata ATCC 66032 (CG), Candida parapsilosis ATCC 22019 (CP), Candida tropicalis ATCC 7349 (CT), Candida auris ATCC 21092 (CA), and Cyberlindnera jadinii ATCC 60459. Frozen yeast stocks were plated on Sabouraud agar (SBA) and incubated at 30 °C for 24 h. Three to four colonies from each strain were then suspended in RPMI 1640 (Roswell Park Memorial Institute medium, Sigma- Aldrich, Merck, Darmstadt, Germany) to prepare bacterial dispersions of ~1.5 × 10^6 CFU/mL.
(§2) A broth microdilution assay was used to calculate MIC values. Twofold serially diluted compounds in RPMI 1640 medium (from 256 to 2 μg/mL), were dispensed (100 μL per well) into a 96-well plate. Then, 100 μL of a yeast starter culture was added to each well to reach a final inoculum of 7.5 × 10^5 CFU/mL. Wells containing only nutrient broth without the tested surfactant served as growth controls. Microbial growth was assessed by turbidity, which reflects increases in biomass and cell count. […] To confirm the obtained MICs, 20 μL of 0.015% (w/v) resazurin was dispensed to each well and incubated for 3 h at 30 °C. Metabolic activity was evidenced by a color change from blue to pink, thereby confirming the MIC value.

Candida auris ATCC 21092 = test: MIC broth microdilution; format: cell-based; conditions: C. auris
Procedure: as §1, §2

[2] = system: Candida glabrata ATCC 66032; test: MIC broth microdilution; format: cell-based; conditions: C. glabrata
Procedure: as §1, §2

[3] = system: Candida parapsilosis ATCC 22019; test: MIC broth microdilution; format: cell-based; conditions: C. parapsilosis
Procedure: as §1, §2

[4] = system: Candida rugosa ATCC 10571; test: MIC broth microdilution; format: cell-based; conditions: C. rugosa
Procedure: as §1, §2

[5] = system: Candida tropicalis ATCC 7349; test: MIC broth microdilution; format: cell-based; conditions: C. tropicalis
Procedure: as §1, §2

[6] = system: Cyberlindnera jadinii ATCC 60459 (C. jardinii); test: MIC broth microdilution; format: cell-based; conditions: C. jardinii
Procedure: as §1, §2

erythrocytes = test: Hemolytic activity assay; format: cell-based; conditions: rabbit erythrocytes
Procedure: Fresh rabbit blood was obtained from the Animal Facility of the CID-CSIC (Research and Development Center, Spanish National Research Council, Barcelona, Spain). Sample collection was conducted in strict compliance with the bioethical guidelines established under Spanish legislation. Erythrocytes were isolated by centrifugation (3000 rpm/10 min). The supernatant was discarded, and the erythrocytes were washed three times with PBS (phosphate-buffered saline, pH 7.4) and then resuspended in PBS at a concentration of 8 × 10^9 cells/mL. Subsequently, varying volumes of a concentrated surfactant solution were added to Eppendorf tubes containing 25 μL of erythrocyte suspension. PBS was then added to bring the total volume to 1 mL. The samples were gently shaken for 10 min at room temperature and centrifuged at 10,000 rpm for 5 min. Hemolysis was evaluated by measuring the absorbance of the supernatant at 540 nm and comparing it to that of a 100% hemolysis control (erythrocytes treated with distilled water). The HC50, defined as the surfactant concentration that induces 50% hemolysis, was determined from the concentration–response curves: % hemolysis= Abstest compound/AbsBasal haemolytic activity ×100

Daphnia magna = test: Acute toxicity, immobilization test; format: in vivo; conditions: Daphnia magna immobilization, 48 h of exposure; 95% confidence intervals in parentheses
Procedure: Aquatic toxicity evaluation was performed using Daphnia magna following established protocols. This bioassay method employs laboratory-cultured freshwater microcrustaceans to evaluate surfactant toxicity in aquatic environments. Test organisms were utilized during their initial 24 h life stage to ensure consistency. The endpoint measurement focused on mobility impairment, specifically the loss of swimming capability after gentle stimulation lasting 15 s. Testing conditions included controlled water chemistry parameters: pH maintained at 8.0, calcium-to-magnesium ratio of 4:1, and total hardness of 250 mg/L as CaCO3. All experiments were conducted under dark conditions at 20 °C. The experimental design incorporated ten test concentrations for each surfactant compound, distributed in geometric progression. Each concentration level included 20 Daphnia specimens distributed across four replicate groups of five organisms each. Mobility assessment occurred at 48 h post-exposure, with immobilization percentages plotted against concentration using probability–logarithmic scaling.

[7] = value in parentheses, read-out: MIC

benzalkonium chloride [BAC, reference compound]
cmc (cmc by conductivity): 5.2 mM
MIC ([1]; RPMI 1640, 24 h, 30 °C): 8 µg/mL
MIC [1, 7]: 24 µM
MIC (Candida auris ATCC 21092; RPMI 1640, 24 h, 30 °C): 32 µg/mL
MIC (Candida auris ATCC 21092; [7]): 98 µM
MIC ([2]; RPMI 1640, 24 h, 30 °C): 8 µg/mL
MIC [2, 7]: 24 µM
MIC ([3]; RPMI 1640, 24 h, 30 °C): 4 µg/mL
MIC [3, 7]: 12 µM
MIC ([4]; RPMI 1640, 24 h, 30 °C): 8 µg/mL
MIC [4, 7]: 24 µM
MIC ([5]; RPMI 1640, 24 h, 30 °C): 4 µg/mL
MIC [5, 7]: 12 µM
MIC ([6]; RPMI 1640, 24 h, 30 °C): 16 µg/mL
MIC [6, 7]: 48 µM
HC50 (erythrocytes; 10 min, room temperature): 31 ± 0.3 µg/mL
HC50 (erythrocytes; value in parentheses): 92 ± 0.8 µM
EC50 (Daphnia magna): 0.039 (0.023–0.05) μg/mL
